Consider 38 compounds from US8022091B2, “Triazole derivative” (Taisho Pharmaceutical Co., Ltd., priority 2006, dated 2011).

SMILES strings stand for the structures. Values joined by “and” are separate entries in the source; they are usually repeats but may differ in a detail not shown here. Identical values can stand only once.

For data set [1], the target named is T1, human Edg-1 (S1P1) (Homo sapiens, UniProt P21453).
T1 construct: expressed in transfected cells; host or cells: HEK-293
The data set can be described thus: S1P1 binding assay: inhibition of [33P]-S1P binding to membrane fraction of HEK-293 cells transferred with the human Edg-1 (S1P1) gene. Particulars: for IC50: [33P]-S1P 0.1 nM, human Edg-1 (S1P1) HEK-293 membrane fraction, 1 h at 30° C., read-out: IC50 (concentration at which binding in the absence of the test compound was inhibited by 50%). In outline: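 Membranes from S1P1-transfected HEK-293 cells incubated 1 h at 30° C in pH 7.4 Tris buffer with fatty acid-free BSA, 0.1 nM [33P]-S1P and test compound (0.1% DMSO). Filter-bound radioactivity was counted; inhibition corrected for binding to untransfected-cell membranes, and IC50 derived from concentration series.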

[2] abbreviates: test compound at 10 μM, inhibition of [33P]-S1P binding to the membrane fraction of HEK-293 cells expressing human Edg-1 (S1P1).
[3] abbreviates: test compound 10 μM, inhibition of [33P]-S1P binding, membrane fraction.

T1 sequence (P21453 whole entry): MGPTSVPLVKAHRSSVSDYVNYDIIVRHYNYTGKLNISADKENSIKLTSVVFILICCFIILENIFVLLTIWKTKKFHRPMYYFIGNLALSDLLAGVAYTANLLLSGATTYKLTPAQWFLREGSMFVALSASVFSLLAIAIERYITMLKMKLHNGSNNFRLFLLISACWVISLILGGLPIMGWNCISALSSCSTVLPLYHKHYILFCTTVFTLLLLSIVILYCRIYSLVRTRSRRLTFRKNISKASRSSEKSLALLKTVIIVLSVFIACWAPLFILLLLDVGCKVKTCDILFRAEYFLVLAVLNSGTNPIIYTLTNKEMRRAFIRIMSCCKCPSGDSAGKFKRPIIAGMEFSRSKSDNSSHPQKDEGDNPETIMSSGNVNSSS

What is called inhibition is the relative decrease from the control value, in per cent. One may read the melting point as the temperature of the solid-liquid transition. Take `CCn1c(Oc2cc(C(C)C)n(C)n2)nnc1[C@@H](C)NS(=O)(=O)c1ccc(Cl)c(Cl)c1` [Compound 99]: the melting point was in the range of 103 to 105.5 °C. In data set [1], the IC50 turned out to be 25 nM. Besides, the inhibition at 10 µM in data set [1] (setting [2]) stood at 102%.
In turn, `CCCn1c(Oc2ccc(C)cc2)nnc1[C@@H](C)NS(=O)(=O)c1ccc(Cl)c(Cl)c1` [Compound 59] yielded a melting point of 169.5 to 170.5 °C. The inhibition at 10 µM in data set [1] (setting [2]) was found to be 94.3%.
Turning to `CCn1c(Oc2ccc3c(c2)NC(=O)CC3)nnc1[C@@H](C)NS(=O)(=O)c1ccc(Cl)c(Cl)c1` [Compound 74], the melting point lay in the range of 218.5 to 227 °C. In addition, in data set [1], the IC50 is 15 nM. For the same compound, in data set [1] (setting [2]), the inhibition at 10 µM came to 105%.
On the same counts, the results for `CCn1c(Oc2ccc(OC)cc2)nnc1[C@@H](C)NS(=O)(=O)c1ccc2c(Cl)cccc2c1` [Compound 138] are 167.5 to 169 °C, no more than 10 nM and 99.6%.
On the same counts, the results for `CCn1c(Oc2cccc(NS(C)(=O)=O)c2)nnc1[C@@H](C)NS(=O)(=O)c1ccc2c(Cl)cccc2c1` [Compound 148] are 154.5 to 155.5 °C, 1.9 nM and 102%.
The like results for `CCn1c(Oc2cccc(NS(C)(=O)=O)c2)nnc1[C@@H](C)NS(=O)(=O)c1ccc2ccccc2c1` [Compound 147] were, in that order, 141 to 143 °C, no more than 10 nM and 103%.
`CCn1c(Oc2cccc(N3CCNCC3)c2)nnc1[C@@H](C)NS(=O)(=O)c1ccc(Cl)c(Cl)c1` [Compound 683, 3,4-Dichloro-N-[(R)-1-[4-ethyl-5-(3-piperazin-1-yl-phenoxy)-4H-[1,2,4]triazol-3-yl]-ethyl]-benzenesulfonamide] displayed a melting point of 175 to 178 °C. Further, the IC50 in data set [1] was no more than 10 nM. Moreover, the inhibition at 10 µM in data set [1] (setting [3]) was 100%.
Take `CCn1c(Oc2ccc(F)cc2)nnc1C1(NS(=O)(=O)c2ccc(Cl)c(Cl)c2)CC1` [Compound 685]: the melting point lay in the range of 255 to 260 °C. In addition, the inhibition at 10 µM in data set [1] (setting [3]) stood at 65.1%.
Regarding `CCn1c(Oc2ccc(F)cc2)nnc1[C@@H](C)NS(=O)(=O)c1ccc(Br)c(C)c1` [Compound 110], the melting point fell in the range of 187.5 to 188.5 °C. The inhibition at 10 µM in data set [1] (setting [2]) was 104%.
The like results for `CCn1c(Oc2ccc3[nH]ccc3c2)nnc1[C@@H](C)NS(=O)(=O)c1ccc(Cl)c(Cl)c1` [Compound 63] were, in that order, 216.5 to 217.5 °C and 105%.
In the case of `C[C@@H](NS(=O)(=O)c1ccc(Cl)c(Cl)c1)c1nnc(Oc2cccc(N3CCN(C)CC3)c2)n1C1CC1` [Compound 123], the melting point lay in the range of 162 to 165 °C. In addition, the IC50 in data set [1] is no more than 35 nM. Besides, in data set [1] (setting [2]), the inhibition at 10 µM is 97.1%.
Compound `CCn1c(Oc2ccc(F)cc2)nnc1[C@@H](C)NS(=O)(=O)c1ccc(Br)c(Br)c1` [Compound 104] returned a melting point of 187 to 187.5 °C. The inhibition at 10 µM in data set [1] (setting [2]) came to 95.2%.
The like results for `CCn1c(Oc2cc(OC)cc(OC)c2)nnc1[C@@H](C)NS(=O)(=O)c1ccc(Cl)c(Cl)c1` [Compound 20] were, in that order, 118 to 120 °C and 97.4%.
The like results for `CCn1c(Oc2cccc(O)c2)nnc1[C@@H](C)NS(=O)(=O)c1ccc(Cl)c(Cl)c1` [Compound 114, 3,4-Dichloro-N-[(R)-1-[4-ethyl-5-(3-hydroxyphenoxy)-4H-[1,2,4]triazol-3-yl]-ethyl]-benzenesulfonamide] were, in that order, 185 to 186 °C and 94.5%.
Turning to `CCn1c(Oc2ccc(C)cc2)nnc1[C@H](C)NS(=O)(=O)c1ccc(Cl)c(Cl)c1` [Compound 62], the melting point is 186 to 188.5 °C. In addition, the inhibition at 10 µM in data set [1] (setting [2]) amounted to 83.5%.
The like results for `CCn1c(Oc2ccc(OC(F)(F)F)cc2)nnc1[C@@H](C)NS(=O)(=O)c1ccc(Cl)c(Cl)c1` [Compound 33] were, in that order, 173.5 to 174.5 °C and 101%.
The like results for `CCn1c(Oc2cccc(NC=O)c2)nnc1[C@@H](C)NS(=O)(=O)c1ccc(Cl)c(Cl)c1` [Compound 90, 3,4-Dichloro-N-[(R)-1-[4-ethyl-5-(3-formylamino-phenoxy)-4H-[1,2,4]triazol-3-yl]-ethyl]-benzenesulfonamide] were, in that order, 168 to 170 °C and 99%.
`CCn1c(Sc2ccccc2)nnc1[C@@H](Cc1ccccc1)NS(=O)(=O)c1ccc(Cl)c(Cl)c1` [Compound 2] registered a melting point of 134 to 138 °C. The inhibition at 10 µM in data set [1] (setting [2]) was determined as 103%. In addition, the “Binding assay (membrane) % inhibition (10 μM)” value in data set [1] (test compound at 10 μM, inhibition of [33P]-S1P binding to the membrane fraction of HEK-293 cells expressing human Edg-1 (S1P1), 10 µM) turned out to be 97.8%.
Consider `CCn1c(Oc2cc(C)cc(C)c2)nnc1[C@@H](C)NS(=O)(=O)c1ccc(Cl)c(Cl)c1` [Compound 19], for which the melting point lay within 145 to 150 °C. For the same compound, the inhibition at 10 µM in data set [1] (setting [2]) was 97.9%.
The like results for `CCn1c(Oc2cccnc2)nnc1[C@@H](C)NS(=O)(=O)c1ccc(Cl)c(Cl)c1` [Compound 50] were, in that order, 129 to 130 °C and 92.9%.
The like results for `CCn1c(Oc2cccc(NC(=O)N(C)C)c2)nnc1[C@@H](C)NS(=O)(=O)c1ccc(Cl)c(Cl)c1` [Compound 97, 3,4-Dichloro-N-((R)-1-[5-[3-(3,3-dimethylureido)-phenoxy]-4-ethyl-4H-[1,2,4]triazol-3-yl]-ethyl)-benzenesulfonamide] were, in that order, 158 to 159 °C and 93%.
`CCn1c(Oc2cccc(N3CCOCC3)c2)nnc1[C@@H](C)NS(=O)(=O)c1ccc(Cl)c(Cl)c1` [Compound 34] registered a melting point of 192.5 to 195.5 °C. For the same compound, in data set [1], the IC50 came to 2 nM. In data set [1] (setting [2]), the inhibition at 10 µM came to 106%.
Compound `CCn1c(Oc2cc(C(F)(F)F)n(C)n2)nnc1[C@@H](C)NS(=O)(=O)c1ccc(Cl)c(Cl)c1` [Compound 77] showed a melting point of 123 to 127 °C. For the same compound, in data set [1] (setting [2]), the inhibition at 10 µM amounted to 99.7%.
In the case of `Cc1ccc(Oc2nnc([C@@H](C)NS(=O)(=O)c3ccc(Cl)c(Cl)c3)n2C(C)C)cc1` [Compound 60], the melting point was 192.5 to 195 °C. In addition, in data set [1] (setting [2]), the inhibition at 10 µM came out at 98.9%.
`CCCCOc1ccc(Oc2nnc([C@@H](C)NS(=O)(=O)c3ccc(Cl)c(Cl)c3)n2CC)cc1` [Compound 21]: the melting point was in the range of 146.5 to 149.5 °C. Moreover, in data set [1], the IC50 was no more than 35 nM. Also, the inhibition at 10 µM in data set [1] (setting [2]) is 96.7%.
Consider `CCn1c(Oc2ccc(F)cc2)nnc1[C@@H](C)NS(=O)(=O)c1ccc2c(Cl)cccc2c1` [Compound 137], for which the melting point is 173.5 to 177 °C. In data set [1], the IC50 is no more than 10 nM. In addition, the inhibition at 10 µM in data set [1] (setting [2]) was 102%.
As for `CCn1c(Oc2ccc(F)cc2)nnc1[C@@H](C)NS(=O)(=O)c1ccc(C(F)(F)F)cc1` [Compound 128], the melting point is 182.5 to 183.5 °C. In addition, the inhibition at 10 µM in data set [1] (setting [2]) turned out to be 90.7%.
`CCn1c(Oc2ccc(C)c(C)c2)nnc1[C@@H](C)NS(=O)(=O)c1ccc(Cl)c(Cl)c1` [Compound 14] yielded a melting point of 161 to 162.5 °C. In addition, the IC50 in data set [1] turned out to be 6.4 nM. For the same compound, in data set [1] (setting [2]), the inhibition at 10 µM stood at 99.5%.
As for `CCn1c(Oc2cccc(C)n2)nnc1[C@@H](C)NS(=O)(=O)c1ccc(Cl)c(Cl)c1` [Compound 71], the melting point was in the range of 126 to 135 °C. Further, in data set [1] (setting [2]), the inhibition at 10 µM came to 99.3%.
Compound `CCn1c(Oc2cccc(N3CCN(C)CC3)c2)nnc1[C@@H](C)NS(=O)(=O)c1ccc2ccc(Cl)cc2c1` [Compound 665] had a melting point of 197 to 201 °C. Further, the IC50 in data set [1] was no more than 35 nM. The inhibition at 10 µM in data set [1] (setting [3]) was 100%.
Compound `CCn1c(Oc2ccc(F)c(N3CCN(C)CC3)c2)nnc1[C@@H](C)NS(=O)(=O)c1ccc2c(Cl)cccc2c1` [Compound 680] gave a melting point of 169.5 to 170.5 °C. Further, the IC50 in data set [1] was found to be 1.4 nM. In data set [1] (setting [3]), the inhibition at 10 µM stood at 100%.
In turn, `CCn1c(Oc2ccc(C)cn2)nnc1[C@@H](C)NS(=O)(=O)c1ccc(Cl)c(Cl)c1` [Compound 67] gave a melting point of 182 to 188 °C. In addition, in data set [1] (setting [2]), the inhibition at 10 µM stood at 95.5%.
Consider `CCn1c(Oc2ccc(OC)cc2)nnc1[C@@H](C)NS(=O)(=O)c1ccc(Cl)c(Cl)c1` [Compound 11], for which the melting point was in the range of 155 to 160 °C. For the same compound, the IC50 in data set [1] was found to be 8.9 nM. For the same compound, the inhibition at 10 µM in data set [1] (setting [2]) amounted to 98.5%.
Take `CCn1c(Oc2cccc(N3CCNCC3)c2)nnc1[C@@H](C)NS(=O)(=O)c1ccc2c(Cl)cccc2c1` [Compound 688]: the melting point fell in the range of 192 to 193 °C. Also, the IC50 in data set [1] was 1.5 nM. For the same compound, the inhibition at 10 µM in data set [1] (setting [3]) was 100%.
`CCn1c(Oc2ccc3sc(C)nc3c2)nnc1[C@@H](C)NS(=O)(=O)c1ccc(Cl)c(Cl)c1` [Compound 46] came in with a melting point of 247 to 250 °C. Further, the IC50 in data set [1] was ≤ 35 nM and 28.5 nM. The inhibition at 10 µM in data set [1] (setting [2]) worked out at 94.6%.
`CCn1c(Oc2ccc(Cl)cc2)nnc1[C@@H](C)NS(=O)(=O)c1ccc2c(Cl)cccc2c1` [Compound 139] gave a melting point of 174 to 177 °C. Further, the IC50 in data set [1] is no more than 10 nM. For the same compound, in data set [1] (setting [2]), the inhibition at 10 µM is 101%.
On the same counts, the results for `CCC(NS(=O)(=O)c1ccc(Cl)c(Cl)c1)c1nnc(Oc2ccc(C)cc2)n1CC` (stereo not drawn) [Compound 149] are 212 to 214.5 °C, 7.8 nM and 101%.
On the same counts, the results for `CCn1c(Oc2cccc(N3CCN(C)CC3)c2)nnc1[C@@H](C)NS(=O)(=O)c1ccc(Br)c(C)c1` [Compound 111] are 204 to 205 °C, no more than 10 nM and 109%.
